Test results published in patent publication US20240156974A1, “COMPOSITIONS AND METHODS FOR MODULATION OF ANTIBODY ACTIVITY” (Institute For Cancer Research D/B/A Tha Research Institute …, priority 2021, published 2024).

System: CTLA-4/CD80 interaction
Test: In vitro CTLA-4/CD80 HTRF binding assay with triple-mutant anti-CTLA-4 scFv (Rip3)
Conditions: no cathepsin B; up to 75 μM JK43 and prodrug; FIG. 2
Experimental: In addition to the above, an in vitro CTLA-4/CD80 HTRF (homogeneous time resolved fluorescence) binding assay was performed with cathepsin B activatable prodrug. Specifically, the HTRF assay was used to assess the ability of antibodies to block the CTLA-4/CD80 interaction using a CTLA-4/CD80 binding assay kit (cat. no. 64CTLA80PEG; Cisbio (Codolet, France)). […]
To the above, 4 μL of Tag1-CD80 protein and 4 μL of Tag2-CTLA-4 were added into a black 384-well low volume plate and then incubated at 37° C. for 10 minutes. […] These were used to measure the fluorescence energy transfer between donor Anti-Tag1 Eu Cryptate and acceptor Anti-Tag d2 reagent. Data was collected at different time points (1, 3, 8, 12 and 24 hours) and the FRET signals were measured on a envision multimode plate reader (PerkinElmer, Shelton, CT) using 340 nm as the excitation wavelength, a 620 nm filter for the Eu donor fluorescence detection, and a 665 nm filter for the acceptor fluorescence detection. HTRF signals were calculated as a ratio as follows: (intensity of 665 nm)/(intensity of 620 nm)×10,000, which was plotted against the WT/triple mutant antibody (5GSWT and 5GS 3′M (Rip3)) concentration to derive the EC50.

rescue of the activity of the triple mutant scFv variant (Rip3): rescues the activity
SMILES: c1ccc(COc2ccc3cn[nH]c3c2)cc1 [Stitch3, 6-phenylmethoxy-1H-indazole]
